Source: patent US20250082656A1, “DOSAGE REGIMENS FOR TREATMENT OF DENGUE INFECTION” (Atea Pharmaceuticals, Inc., priority 2022, published 2025)
Where two headings read alike, the source gives them in different places.

Tests used:
[1] = steady-state, human plasma; for AUCtau / Cmax: mean±SD; for Tmax: median (minimum-maximum)
[2] = Pharmacokinetic study in SAD cohorts; format: in vivo, human; conditions: for dose proportionality of plasma exposure: dose range 250 to 1500 mg; for Urine Elimination: following single oral administration of Compound 2 at 250 to 1500 mg; for AUCInf / Cmax / T1/2 / Tmax: human plasma; for CLR: human
Method: (§1) Pharmacokinetic measurements for FIGS. 11, 12, 13, 14, and 15 were analyzed using LC-MS/MS according to the protocol described herein. Plasma samples were prepared for MS analysis by adding internal standards and extracting with 20 volumes chilled ACN. After vortex (800 rpm for 10 min) and centrifugation (4,000 rpm, 15 min, 4° C.), the supernatants (25 μL) were diluted with an equal volume of H2O, mixed and spun again. After adding internal standards, the PBMC samples (10^6 cells) were lyzed with 300 μL MeOH/H2O (70:30, v/v) and 40 mM dibutylammonium acetate (DBAA), mixed by vortex and centrifuged (12,000 rpm, 15 min, 4° C.). Aliquots of the supernatants (35 μL) were dried under nitrogen and reconstituted in H2O, then mixed and spun again. […] A binary nonlinear gradient with mobile phases A (0.1% formic acid in water) and B (0.1% formic acid in ACN) were used to elute samples at 0.8 mL/min, with a run time of 5 min. […] A binary nonlinear gradient with mobile phases A (0.001% NHr H2O, 0.18 mM DBAA in H2O) and B (10 mM N,N-dimethyl-hexylamine, 3 mM NH4OAc in ACN/H2O (50.50, v/v)) were used to elute samples at 0.5 mL/min, with a run time of 3 min. Standards in 50% MeOH were used for calibration. […] Internal standards (ISS) as described previously (Good et al., Preclinical evaluation of AT-527, a novel guanosine nucleotide prodrug with potent, pan-genotypic activity against hepatitis C virus. PLos One 15:e02271045) were used to correct for variations in recovery.
(§2) Data analysis of the pharmacokinetic data generated according to Example 21 and presented in FIGS. 11, 12, 13, 14, and 15 was analyzed according to the procedure described herein. Plasma concentrations of Compound 1 (AT-281), Compound 3 (AT-551) and Compound 6 (AT-273) were subjected to non-compartmental pharmacokinetic analysis using Phoenix WinNonlin software (version 6.3 or above, Pharsight, Mountain View, CA). The linear/log trapezoidal rule was applied in obtaining the PK parameters.

[3] = Plasma PK after single oral dose of AT-752, mice; conditions: Mouse, single oral AT-752 420 mg/kg
[4] = Plasma PK after single oral dose of AT-752, rats; format: in vivo, SD rats; conditions: Rat, single oral AT-752 300 mg/kg, plasma
Method: (§3) Male SD rats were administered 300 mg/kg Compound 2 (AT-752). Blood samples were collected up to 24 hrs. post dose, plasma separated and analyzed for Compound 1 (AT-281), Compound 3 (AT-551), and Compound 6 (AT-273) by LC-MS/MS. Data are express as mean+/−SD (n=3-5/time point). The x-axis is time post the dose measured in hours and the y-axis is the plasma concentration of the metabolites measured in nanomoles/mL). The experimental procedure is provided in Example 14.
Male naïve SD rats (Beijing Vital River Laboratory Animals Co. Ltd., China) were administered a dose of AT-752 at 300 mg/kg in 40% PEG400, 10% solutol HS15, 50% 100 mM citrate buffer, pH 4.5 (v/v) by oral gavage. Blood samples (n=4) were collected at 1, 2, 4, 8, 12 and 24 h post-dose, plasma separated and stored at −70° C. […] For PBMCs, nine male naïve SD rats were administered a dose of Compound 2 (AT-752) (at a Compound 1 (AT-281) equivalent dose of 300 mg/kg) by oral gavage.
as §1, §2

[5] = Plasma PK after single oral dose of AT-752, monkeys; format: in vivo, cynomolgus monkeys; conditions: Monkey, single oral AT-752 300 mg/kg, plasma
Method: as §3, with “cynomolgus monkeys” for “SD rats”
Male non-naïve cynomolgus monkeys (Hainan Jingang Laboratory Animal Co. Ltd., China), at least 2 kg body weight, were individually housed during the study in stainless steel mesh cages, provided ad libitum access to RO water, fed twice daily (except on the day of dosing when they were fed once) with ˜60 g Certified Monkey Diet each feed (Beijing Vital Keao Feed Co., Ltd., Beijing, China) and given daily treats of fresh fruit. They (n=5) were administered a dose of Compound 2 (AT-752) at 300 mg/kg in 40% PEG400, 10% solutol HS15, 50% 100 mM citrate buffer, pH 4.5 (v/v) by oral gavage, and blood samples (˜0.5 mL) were collected at 1, 2, 4, 8, 12 and 24 h post dose. Plasma was separated at each time point for pharmacokinetics, and stored at −70° C. […] Separately, three monkeys were given an oral dose of Compound 2 (AT-752) as powder in capsules at 60 mg/kg ([…] (AT-281) equivalent dose of 55 mg/kg), and blood samples collected at 12, 24 and 48 h post dose.
as §1, §2

[6] = single oral Compound 2 250 mg, fasting
[7] = single oral Compound 2 500 mg, fasting
[8] = single oral Compound 2 500 mg, fed
[9] = single oral Compound 2 500 mg, fed (high-fat/high-calorie meal)
[10] = single oral Compound 2 1000 mg, South/Southeast/East Asian origin
[11] = single oral Compound 2 1000 mg, fasting
[12] = single oral Compound 2 1000 mg, patients of South/Southeast/East Asian origin
[13] = single oral Compound 2 1500 mg, fasting

SMILES: CNc1nc(N)nc2c1ncn2[C@@H]1O[C@H](CO)[C@@H](O)[C@@]1(C)F [Compound 7]
- AUCtau ([1]; Compound 2 750 mg BID): 7960 ± 2970 ng·h/mL
- Cmax ([1]; Compound 2 750 mg BID): 1470 ± 404 ng/mL
- Tmax ([1]; Compound 2 750 mg BID): 1.5 (0.8-2.2) h
- AUCtau ([1]; Compound 2 750 mg TID): 22300 ± 14100 ng·h/mL
- Cmax ([1]; Compound 2 750 mg TID): 1600 ± 640 ng/mL
- Tmax ([1]; Compound 2 750 mg TID): 1.5 (1.0-2.0) h
- AUCtau ([1]; Compound 2 1000 mg QD): 8290 ± 2290 ng·h/mL
- Cmax ([1]; Compound 2 1000 mg QD): 1200 ± 284 ng/mL
- Tmax ([1]; Compound 2 1000 mg QD): 0.9 (0.8-2.0) h
- dose proportionality of plasma exposure [2]: dose-proportional manner
- Urine Elimination [2]: 10.7-17.9%
- AUCInf [2, 6]: 2890 ± 680 ng·h/mL
- Cmax [2, 6]: 446 ± 121 ng/mL
- T1/2 [2, 6]: 16.9 ± 8.6 h
- Tmax [2, 6]: 2.1 (2.0-3.0) h
- AUCInf [2, 7]: 5480 ± 1630 ng·h/mL
- Cmax [2, 7]: 765 ± 307 ng/mL
- T1/2 [2, 7]: 15.1 ± 6.2 h
- Tmax [2, 7]: 1.0 (0.8-4.0) h
- AUCInf [2, 8]: 4310 ± 1400 ng·h/mL
- T1/2 [2, 8]: 11.2 ± 4.9 h
- Tmax [2, 8]: 4.0 (3.0-6.1) h
- Cmax [2, 9]: 488 ± 324 ng/mL
- AUCInf [2, 10]: 14000 ± 4210 ng·h/mL
- T1/2 [2, 10]: 14.7 ± 10.1 h
- Tmax [2, 10]: 1.5 (0.8-2.0) h
- AUCInf [2, 11]: 10300 ± 3070 ng·h/mL
- Cmax [2, 11]: 1640 ± 474 ng/mL
- T1/2 [2, 11]: 12.4 ± 10.7 h
- Tmax [2, 11]: 0.9 (0.8-3.0) h
- Cmax [2, 12]: 2010 ± 489 ng/mL
- AUCInf [2, 13]: 16700 ± 3780 ng·h/mL
- Cmax [2, 13]: 2030 ± 600 ng/mL
- T1/2 [2, 13]: 12.5 ± 3.8 h
- Tmax [2, 13]: 2.0 (1.0-2.0) h
- CLR [2, 6]: 13.7 ± 1.6 L/h
- CLR [2, 7]: 13.6 ± 5.4 L/h
- CLR [2, 8]: 12.5 ± 2.8 L/h
- CLR [2, 10]: 13.4 ± 2.5 L/h
- CLR [2, 11]: 14.2 ± 3.8 L/h
- CLR [2, 13]: 15.0 ± 2.4 L/h

SMILES: CNc1nc(N)nc2c1ncn2C1OC(COP(=O)(O)NC(C)C(=O)O)C(O)C1(C)F (stereo not drawn) [Compound 3]
- AUC0-24 h [3]: 58.7 ± 13.3 µM·h
- Cmax [3]: 45.1 ± 12 µM
- Tmax [3]: 0.5 ± 0.0 h
- AUC0-24 h [4]: 56.5 µM·h
- Cmax [4]: 16.5 ± 10.8 µM
- AUCtau ([1]; Compound 2 750 mg BID): 1330 ± 503 ng·h/mL
- Cmax ([1]; Compound 2 750 mg BID): 365 ± 159 ng/mL
- Tmax ([1]; Compound 2 750 mg BID): 1.0 (0.8-2.0) h
- AUCtau ([1]; Compound 2 750 mg TID): 944 ± 173 ng·h/mL
- Cmax ([1]; Compound 2 750 mg TID): 245 ± 30 ng/mL
- Tmax ([1]; Compound 2 750 mg TID): 1.5 (0.8-2.0) h
- AUCtau ([1]; Compound 2 1000 mg QD): 1650 ± 498 ng·h/mL
- Cmax ([1]; Compound 2 1000 mg QD): 392 ± 143 ng/mL
- Tmax ([1]; Compound 2 1000 mg QD): 1.0 (0.8-2.0) h
- dose proportionality of plasma exposure [2]: greater than dose-proportional manner
- Urine Elimination [2]: < 1%
- AUCInf [2, 6]: 302 ± 71 ng·h/mL
- Cmax [2, 6]: 89 ± 36 ng/mL
- T1/2 [2, 6]: 2.1 ± 0.3 h
- Tmax [2, 6]: 1.0 (0.8-2.0) h
- AUCInf [2, 7]: 898 ± 437 ng·h/mL
- Cmax [2, 7]: 231 ± 155 ng/mL
- T1/2 [2, 7]: 2.4 ± 0.5 h
- Tmax [2, 7]: 1.0 (0.8-8.0) h
- AUCInf [2, 8]: 737 ± 289 ng·h/mL
- T1/2 [2, 8]: 2.3 ± 0.4 h
- Tmax [2, 8]: 3.1 (3.0-4.0) h
- Cmax [2, 9]: 154 ± 84 ng/mL
- AUCInf [2, 10]: 3320 ± 1630 ng·h/mL
- T1/2 [2, 10]: 2.0 ± 0.3 h
- Tmax [2, 10]: 0.9 (0.5-2.0) h
- AUCInf [2, 11]: 2330 ± 1060 ng·h/mL
- Cmax [2, 11]: 695 ± 468 ng/mL
- T1/2 [2, 11]: 2.2 ± 0.4 h
- Tmax [2, 11]: 0.8 (0.5-2.0) h
- Cmax [2, 12]: 895 ± 418 ng/mL
- AUCInf [2, 13]: 4100 ± 494 ng·h/mL
- Cmax [2, 13]: 1080 ± 217 ng/mL
- T1/2 [2, 13]: 3.2 ± 1.2 h
- Tmax [2, 13]: 1.5 (0.8-2.0) h
- CLR [2, 6]: 2.0 ± 0.3 L/h
- CLR [2, 7]: 2.1 ± 0.6 L/h
- CLR [2, 8]: 2.1 ± 0.4 L/h
- CLR [2, 10]: 2.1 ± 0.6 L/h
- CLR [2, 11]: 2.1 ± 0.6 L/h
- CLR [2, 13]: 1.9 ± 0.4 L/h
- AUC0-24 h [5]: 9.7 ± 2.2 µM·h
- Cmax [5]: 2 ± 0.8 µM
- Tmax [5]: 2.0 ± 0.0 h
